Entries after “also recorded” stand apart in the source; their conditions may differ.
Key:
[1] = system: Hh signaling in NIH 3T3 cells exposed to Shh; experiment: RT-qPCR of Hh target transcripts in Shh-stimulated NIH 3T3 cells; assay type: cell-based, mouse
Method: (§1) NIH3T3s or SUFU−/− MEFs were plated in 6 well plates at 400,000 cells/well in 10% FBS media constituted of DMEM (Invitrogen11960-069) supplemented with 10% FBS (Hyclone Labs SH30070.02), pen/strep (Life Technologies 15140-122), sodium pyruvate (Invitrogen 11360-070) and glutamax (Invitrogen 35050-061). Cells were then starved in 0.5% FBS for 24 h prior to treatment with 25% ShhN conditioned media in 0.5% FBS+/− drug treatment. GliΔN were treated 48 h post transfection. Unless otherwise stated, all treatments were performed for 6 h. Cell lysis and RNA extraction was performed using Qiashredder homogenizers (Qiagen 79654) and RNEasy mini kits (qiagen 74104) as per manufacturer's instructions. RNA was quantified on a nanodrop spectrophotometer (nanoddrop technologies ND-2000C). Transcript quantification was performed using a TaqMan RNA-to-Ct 1-Step Kit (Life technologies, 4392656) and the Applied Biosystems 7500 RT-PCR system as per the manufacturer's instructions. All primers were commercially available TaqMan® Gene Expression Assay probes purchased from Life Technologies (csnk2a1: Mm00786779_s1, csnk2a2: Mm01243455_m1, csnk2b: Mm00487216_m1, Gli1: Mm00494654_m1, Gli2: Mm.273292, Ccnd1: Mm.273049, Ptch: Mm00436047_m1).

[2] = system: Hh signaling in NIH 3T3s stimulated with SAG; experiment: RT-qPCR of Gli1 in NIH 3T3s stimulated with SAG (epistasis study); assay type: cell-based, mouse; settings: NIH 3T3s stimulated with SAG; dose-responsive
Method: (§2) Epistasis studies were next performed to determine where in the hedgehog pathway CK2 acts. The effect of TBB was examined: (i) in NIH 3T3s stimulated with SAG, a SMO agonist, (ii) in Sufu−/− mouse embryonic fibroblasts (MEF), and (iii) in NIH 3T3 cells overexpressing GLI2 (FIG. 3d-3f).
as §1, with “All primers were commercially available TaqMan® Gene Expression Assay probes purchased from Life Technologies (csnk2a1: Mm00786779_s1, csnk2a2: Mm01243455_m1, csnk2b: Mm00487216_m1, Gli1: Mm00494654_m1, Gli2: Mm.273292, Ccnd1: Mm.273049, Ptch: Mm00436047_m1).” left out

[3] = system: Gli2; experiment: Gli2 stability; assay type: cell-based, mouse
Method: as §2
Gli2ΔN cells were lysed with RIPA buffer (sc-24948, Santa Cruz Biotechnology) supplemented with Halt Protease & Phosphatase Inhibitor (Thermo #1861218) for 30 min on ice and lysates were cleared by centrifugation at 13000 rpm, 15 min at 4° C. Supernatants were incubated with 6× Lamelli sample buffer (10570021-1, BioWorld) at 95° C. for 5 min. The samples were then separated with a 7% SDS-PAGE gel and immunoblotted with anti-Gli2 (AF3635-SP, R&D) and anti-β-tubulin (ab6046, Abcam).

[4] = system: Hh signaling in GNPs; experiment: Transcript levels in GNPs following Hh stimulation; assay type: cell-based, mouse
[5] = system: Medulloblastoma cell lines (MB53, MB55 and MB21 cells); experiment: Acquired resistance in medulloblastoma cell lines; assay type: cell-based, mouse; settings: TBB 50 uM
Method: Medulloblastoma cell lines (MB53, MB55 and MB21 cells) were cultured in Neurobasal (Life Technologies 10888-022)+B27 supplement (Invitrogen 17504044)+DMSO (0.1%), CX-4945 (10 uM) or TBB (50 uM). […] Primer sequences are provided in supplemental table 5.

[6] = system: Ptch+/−; Tpr53−/−; SmoD477G MB flank allografts; experiment: Flank allograft study, SMO inhibitor-resistant MB; assay type: in vivo, mouse
Method: In vivo efficacy studies were performed in accordance with protocols approved by the Institutional Animal Care and Use Committee at Stanford University. SmoWT-MB and Smo[…]-MB cells isolated from either parental SmoWT or Smo[…] mouse Ptch^+/-; p53^-/- MB hind-flank allografts were kindly provided by Charles Rudin (Memorial Sloan-Kettering Cancer Center). Ptch+/-; Tpr53-/-, or, Ptch+/-; Tpr53-/-; Smo[…] MB cells were mixed 1:1 with matrigel and 10^7 cells were injected into both flanks of a Nu/Nu mouse. Once tumors reached 225-275 mm^3, mice were randomized to treatment vs. control groups. Treatment groups received 30 mg/kg IP BID of TBB (reconstituted in DMSO at 50 ug/uL), or 37.5 mg/kg IP BID of GDC-0449 (reconstituted in DMSO at 62.5 ug/uL). Control mice were treated with an equivalent volume of DMSO. Corn oil was used in all groups to a total volume of 180 uL/injection and all doses were given with a 28 g insulin syringe. Tumors were measured and mice were weighed daily. Once tumors reached 1.5 cm^2 or met institutional euthanasia criteria, mice were sacrificed and tumors were harvested. Growth curves were generated using GraphPad Prism and significance was measured by two-way ANOVA.

[7] = NIH 3T3's following Hh stimulation

Brc1c(Br)c(Br)c2[nH]nnc2c1Br [TBB, 4,5,6,7-tetrabromo-2H-benzotriazole]
Gli2 transcript levels [1, 7]: effective at decreasing | Ptch transcript levels [1, 7]: effective at decreasing | Gli1 mRNA levels ([1]; SHH ligand-induced NIH 3T3 cells, as early as 4 h post exposure): inhibited; also recorded: dramatic decrease; also recorded: loss of Gli1 induction | Gli1 mRNA levels (effect of inhibitor) [2]: substantially decreased; also recorded: dose dependent loss of Gli1 expression | GLI2 protein driven off the CMV promoter-expression vector ([3]; Gli2ΔN cells after TBB treatment): no decrease | endogenous, full length Gli2 mRNA levels ([3]; after TBB treatment): decreases | Gli1 transcript levels [4]: no change | Gli2 transcript levels [4]: effective at decreasing | Ptch transcript levels [4]: effective at decreasing | surviving cells after 2 weeks of culture with drug [5]: MB55 TBB treated (50 uM) cells remained | tumor growth of SmoD477G MB flank allografts ([6]; TBB 30 mg/kg IP BID or GDC-0449 37.5 mg/kg IP BID vs vehicle control): near-complete cessation of tumor growth; also recorded: significant response | BrdU incorporation in flank allografts ([6]; following TBB administration, relative to GDC-0449 and control treated mouse): Decreased

Reference: US10213449B2, “Compositions and methods for treating medulloblastoma” (The Board of Trustees of the Leland Stanford Junior …, priority 2016, dated 2019)
